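How tested: cells in 96-well plates exposed to compound for 48 hours at five concentrations. The concentration for 50% growth inhibition is given as GI50. TGI marks complete inhibition of growth.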
Assays:
Test in all cases: growth of human tumour cells (NCI), 48 h
786-0 renal = test system: 786-0 renal
A498 renal = test system: A498 renal
A549 NSCLC = test system: A549 NSCLC
ACHN renal = test system: ACHN renal
BT-549 breast = test system: BT-549 breast
CAKI-1 renal = test system: CAKI-1 renal
CCRF-CEM leukemia = test system: CCRF-CEM leukemia
COLO 205 colon = test system: COLO 205 colon
DU-145 prostate = test system: DU-145 prostate
EKVX NSCLC = test system: EKVX NSCLC
HCC-2998 colon = test system: HCC-2998 colon
HCT-116 colon = test system: HCT-116 colon
HCT-15 colon = test system: HCT-15 colon
HL-60(TB) leukemia = test system: HL-60(TB) leukemia
HOP-62 NSCLC = test system: HOP-62 NSCLC
HOP-92 NSCLC = test system: HOP-92 NSCLC
HS 578T breast = test system: HS 578T breast
HT29 colon = test system: HT29 colon
IGROV1 ovarian = test system: IGROV1 ovarian
K-562 leukemia = test system: K-562 leukemia
KM12 colon = test system: KM12 colon
LOX IMVI melanoma = test system: LOX IMVI melanoma
M14 melanoma = test system: M14 melanoma
MALME-3M melanoma = test system: MALME-3M melanoma
MCF7 breast = test system: MCF7 breast
MDA-MB-231 breast = test system: MDA-MB-231 breast
MDA-MB-435 = test system: MDA-MB-435
MDA-MB-468 breast = test system: MDA-MB-468 breast
MOLT-4 leukemia = test system: MOLT-4 leukemia
NCI-H226 lung = test system: NCI-H226 lung
NCI-H23 lung = test system: NCI-H23 lung
NCI-H460 lung = test system: NCI-H460 lung
NCI-H522 lung = test system: NCI-H522 lung
OVCAR-3 ovarian = test system: OVCAR-3 ovarian
OVCAR-4 ovarian = test system: OVCAR-4 ovarian
OVCAR-5 ovarian = test system: OVCAR-5 ovarian
OVCAR-8 ovarian = test system: OVCAR-8 ovarian
PC-3 prostate = test system: PC-3 prostate
RPMI-8226 leukemia = test system: RPMI-8226 leukemia
RXF 393 renal = test system: RXF 393 renal
SF-268 CNS = test system: SF-268 CNS
SF-295 CNS = test system: SF-295 CNS
SF-539 CNS = test system: SF-539 CNS
SK-MEL-2 melanoma = test system: SK-MEL-2 melanoma
SK-MEL-28 melanoma = test system: SK-MEL-28 melanoma
SK-MEL-5 melanoma = test system: SK-MEL-5 melanoma
SK-OV-3 ovarian = test system: SK-OV-3 ovarian
SN12C renal = test system: SN12C renal
SNB-19 CNS = test system: SNB-19 CNS
SNB-75 CNS = test system: SNB-75 CNS
SR leukemia = test system: SR leukemia
SW-620 colon = test system: SW-620 colon
T-47D breast = test system: T-47D breast
TK-10 renal = test system: TK-10 renal
U251 CNS = test system: U251 CNS
UACC-257 melanoma = test system: UACC-257 melanoma
UACC-62 melanoma = test system: UACC-62 melanoma
UO-31 renal = test system: UO-31 renal

SMILES: Cc1ccc(-c2cc(-c3cc4ccccc4nc3Cl)[nH]c(=O)n2)cc1
- GI50 (786-0 renal): 4.71 µM
- TGI (786-0 renal): 17.5 µM
- GI50 (A498 renal): 14.4 µM
- TGI (A498 renal): 30.5 µM
- GI50 (A549 NSCLC): 22.1 µM
- TGI (A549 NSCLC): > 100 µM
- GI50 (ACHN renal): 16.3 µM
- TGI (ACHN renal): 32.9 µM
- GI50 (BT-549 breast): 2.73 µM
- TGI (BT-549 breast): 7.87 µM
- GI50 (CAKI-1 renal): 11.9 µM
- TGI (CAKI-1 renal): 26.5 µM
- GI50 (CCRF-CEM leukemia): 3.94 µM
- TGI (CCRF-CEM leukemia): 35.5 µM
- GI50 (COLO 205 colon): 18 µM
- TGI (COLO 205 colon): 38.8 µM
- GI50 (DU-145 prostate): 13.1 µM
- TGI (DU-145 prostate): 26.9 µM
- GI50 (EKVX NSCLC): 17.6 µM
- TGI (EKVX NSCLC): 54.8 µM
- GI50 (HCC-2998 colon): 15.3 µM
- TGI (HCC-2998 colon): 29.4 µM
- GI50 (HCT-116 colon): 3.31 µM
- TGI (HCT-116 colon): 14 µM
- GI50 (HCT-15 colon): 13 µM
- TGI (HCT-15 colon): 45.1 µM
- GI50 (HL-60(TB) leukemia): 1.89 µM
- TGI (HL-60(TB) leukemia): 14.6 µM
- GI50 (HOP-62 NSCLC): 14.2 µM
- TGI (HOP-62 NSCLC): 31.5 µM
- GI50 (HOP-92 NSCLC): 2.73 µM
- TGI (HOP-92 NSCLC): 14.5 µM
- GI50 (HS 578T breast): 13 µM
- TGI (HS 578T breast): 83.4 µM
- GI50 (HT29 colon): 16 µM
- TGI (HT29 colon): 34.6 µM
- GI50 (IGROV1 ovarian): 16 µM
- TGI (IGROV1 ovarian): 37.2 µM
- GI50 (K-562 leukemia): 2.61 µM
- TGI (K-562 leukemia): 13.2 µM
- GI50 (KM12 colon): 7.63 µM
- TGI (KM12 colon): 24.8 µM
- GI50 (LOX IMVI melanoma): 8.43 µM
- TGI (LOX IMVI melanoma): 23.9 µM
- GI50 (M14 melanoma): 10.7 µM
- TGI (M14 melanoma): 30.1 µM
- GI50 (MALME-3M melanoma): 14.8 µM
- TGI (MALME-3M melanoma): 29.1 µM
- GI50 (MCF7 breast): 6.08 µM
- TGI (MCF7 breast): 22.4 µM
- GI50 (MDA-MB-231 breast): 13.9 µM
- TGI (MDA-MB-231 breast): 32.4 µM
- GI50 (MDA-MB-435): 14.9 µM
- TGI (MDA-MB-435): 31.5 µM
- GI50 (MDA-MB-468 breast): 12.7 µM
- TGI (MDA-MB-468 breast): 44.3 µM
- GI50 (MOLT-4 leukemia): 2.66 µM
- TGI (MOLT-4 leukemia): 12.4 µM
- GI50 (NCI-H226 lung): 13.1 µM
- TGI (NCI-H226 lung): 37.2 µM
- GI50 (NCI-H23 lung): 12.2 µM
- TGI (NCI-H23 lung): 30.2 µM
- GI50 (NCI-H460 lung): 10 µM
- TGI (NCI-H460 lung): 29.3 µM
- GI50 (NCI-H522 lung): 13.9 µM
- TGI (NCI-H522 lung): 27.3 µM
- GI50 (OVCAR-3 ovarian): 10.3 µM
- TGI (OVCAR-3 ovarian): 22.5 µM
- GI50 (OVCAR-4 ovarian): 20.9 µM
- TGI (OVCAR-4 ovarian): > 100 µM
- GI50 (OVCAR-5 ovarian): 16.9 µM
- TGI (OVCAR-5 ovarian): 32.5 µM
- GI50 (OVCAR-8 ovarian): 18.5 µM
- TGI (OVCAR-8 ovarian): 76.8 µM
- GI50 (PC-3 prostate): 12 µM
- TGI (PC-3 prostate): 37 µM
- GI50 (RPMI-8226 leukemia): 3.17 µM
- TGI (RPMI-8226 leukemia): 17.8 µM
- GI50 (RXF 393 renal): 14.6 µM
- TGI (RXF 393 renal): 32.6 µM
- GI50 (SF-268 CNS): 13.8 µM
- TGI (SF-268 CNS): 32.3 µM
- GI50 (SF-295 CNS): 16.9 µM
- TGI (SF-295 CNS): 35.1 µM
- GI50 (SF-539 CNS): 12.1 µM
- TGI (SF-539 CNS): 24.7 µM
- GI50 (SK-MEL-2 melanoma): 14.4 µM
- TGI (SK-MEL-2 melanoma): 30.6 µM
- GI50 (SK-MEL-28 melanoma): 16.2 µM
- TGI (SK-MEL-28 melanoma): 30.2 µM
- GI50 (SK-MEL-5 melanoma): 17.7 µM
- TGI (SK-MEL-5 melanoma): 33.7 µM
- GI50 (SK-OV-3 ovarian): 29.2 µM
- TGI (SK-OV-3 ovarian): > 100 µM
- GI50 (SN12C renal): 15.8 µM
- TGI (SN12C renal): 33 µM
- GI50 (SNB-19 CNS): 11.3 µM
- TGI (SNB-19 CNS): 23.9 µM
- GI50 (SNB-75 CNS): 11.4 µM
- TGI (SNB-75 CNS): 40.2 µM
- GI50 (SR leukemia): 1.2 µM
- TGI (SR leukemia): 4.33 µM
- GI50 (SW-620 colon): 13.8 µM
- TGI (SW-620 colon): 34.4 µM
- GI50 (T-47D breast): 16.4 µM
- TGI (T-47D breast): 77.3 µM
- GI50 (TK-10 renal): 15.1 µM
- TGI (TK-10 renal): 29.7 µM
- GI50 (U251 CNS): 9.95 µM
- TGI (U251 CNS): 28.6 µM
- GI50 (UACC-257 melanoma): 16.7 µM
- TGI (UACC-257 melanoma): 35.7 µM
- GI50 (UACC-62 melanoma): 14 µM
- TGI (UACC-62 melanoma): 30 µM
- GI50 (UO-31 renal): 10.4 µM
- TGI (UO-31 renal): 22.2 µM

Reference: PubChem BioAssay (NCI)
